Data on three molecules can be found in PMC11278016, “Discovery of Prenyltransferase-Guided Hydroxyphenylacetic Acid Derivatives from Marine Fungus Penicillium sp. W21C371” (Marine Drugs, 2024).

The target in experiment [1] is Escherichia coli β-glucuronidase (EcGUS) (Escherichia coli, UniProt P05804). Nature of the experiment: EcGUS inhibition assay. Particulars: for IC50: EcGUS inhibition, mean ± SD, three independent experiments; for Ki′ (inhibition constant of the enzyme–substrate complex): EcGUS–substrate complex, secondary plot of Y-intercept versus [I]; for type of inhibition: Lineweaver–Burk plots; for Ki: free EcGUS, secondary plot of slope versus [I], Lineweaver–Burk, read-out: Ki (inhibition constant of the enzyme); for inhibition at 100 µM: preliminary screening at a concentration of 100 μM, read-out: relative inhibitory rate. The experiment is classed as biochemical. As to the method: All isolates 1–17 were evaluated for their in vitro inhibitory activity against EcGUS, a potential target for the treatment of drug-induced gastrointestinal disorders, employing D-saccharic acid 1,4-lactone (DSL) as the positive control. […] In view of the potent inhibitory activity of 2 and 3 against EcGUS, their kinetic mechanisms of inhibition were determined using Lineweaver–Burk plots (Figure 5 and Table S1). The inhibition constants of the enzyme Ki and the enzyme–substrate complex Ki^′ were obtained by secondary plots of “slope versus [I]” and “Y-intercept versus [I]”, respectively. […] As a mixed-type inhibitor of EcGUS, 3 was supposed to bind either the free EcGUS or the EcGUS–substrate complex. […] To the best of our knowledge, 2 and 3 represent the first citridone and ergosterol derivatives with potent EcGUS-inhibitory activity. However, 2 and 3 were obtained in limited amount in the present study, preventing the in vivo evaluation of their EcGUS inhibition activity. The optimization of the fermentation and separation processes with the aim of increasing the yields of 2 and 3 is underway, which may help to accumulate greater amounts of the two compounds for further in-depth pharmacological studies.
Optical rotations were obtained with a Rudolph Research Autopol III automatic polarimeter. IR spectra were recorded on a Thermo Nicolet 6700 FT-IR microscope instrument (FT-IR microscope transmission) in KBr pellets. UV spectra were measured on a TU-1900 spectrometer (Persee, Beijing, China). Meanwhile, 1D and 2D-NMR spectra were obtained at 600 MHz for ^1H and 150 MHz for ^13C on a Bruker Avance 600 spectrometer, with solvent peaks used as references. HRESIMS data were measured on an Agilent-6210-LC/TOF mass spectrometer (Agilent Technologies, Inc., Santa Clara, CA, USA). EcGUS-inhibitory activity was measured spectrophotometrically using a SpectraMax Plus 384 microplate reader (Molecular Devices, San Jose, CA, USA). Column chromatography (CC) was performed on silica gel (SiO2; 200–300 mesh; Qingdao Marine Chemical Co., Ltd.), ODS C-18 gel (50 mm; YMC Co., Ltd., Kyoto, Japan), and MCI CHP20P gel (75–150 μm, Tokyo, Japan). Semi-preparative HPLC was performed on an Cosmosil 5C18-MS-II column (5 μm, 250 × 10 mm) with a Shimadzu LC-20AT system eluting with methanol/water or acetonitrile/water at a flow rate of 3 mL/min. Chiral separation was performed on a Chiralpak AD-H column (5 μm, 4.6 × 250 mm). Thin layer chromatography (TLC) was performed on precoated silica gel GF254 plates (Qingdao Marine Chemical Co., Ltd., Qingdao, China) and visualized by UV light and/or spraying with 10% H2SO4 in 95% EtOH, followed by heating. All solvents used were of analytical grade and obtained from commercially available sources. All reagents used for biological evaluation were obtained from Sigma-Aldrich (St. Louis, MO, USA).
The EcGUS inhibition assay was performed according to the method previously reported, employing DSL as the positive control. The results are presented as means ± SD for three independent experiments.

For another experiment, the system named is Candida albicans. On the set-up: method as in PMID 19160522. Particulars: against Candida albicans; cited from earlier work.
For experiment [2], the system named is methicillin-resistant Staphylococcus aureus (MRSA). On the set-up: method as in PMID 24643052. Particulars: MRSA virulence factor; cited from earlier work.

Sequence of Escherichia coli β-glucuronidase (EcGUS) (P05804 whole entry): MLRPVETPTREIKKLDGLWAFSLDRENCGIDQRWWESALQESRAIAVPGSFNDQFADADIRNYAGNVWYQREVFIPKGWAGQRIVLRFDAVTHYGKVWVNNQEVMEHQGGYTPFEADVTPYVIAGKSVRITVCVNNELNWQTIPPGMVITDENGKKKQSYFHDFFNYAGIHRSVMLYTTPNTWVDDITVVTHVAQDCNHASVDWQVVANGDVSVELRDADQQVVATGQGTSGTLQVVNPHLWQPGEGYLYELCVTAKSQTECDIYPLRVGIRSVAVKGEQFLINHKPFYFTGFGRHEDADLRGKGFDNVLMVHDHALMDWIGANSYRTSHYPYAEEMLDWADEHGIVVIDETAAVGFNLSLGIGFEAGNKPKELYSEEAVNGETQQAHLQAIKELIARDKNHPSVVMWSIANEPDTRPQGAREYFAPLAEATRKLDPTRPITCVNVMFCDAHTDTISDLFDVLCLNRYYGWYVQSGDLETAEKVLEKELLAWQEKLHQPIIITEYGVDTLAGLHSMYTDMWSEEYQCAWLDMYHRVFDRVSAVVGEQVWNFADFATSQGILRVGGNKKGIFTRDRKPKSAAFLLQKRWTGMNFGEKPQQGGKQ

For orientation: IC50 means the point on the concentration scale where inhibition reaches its midpoint. By Ki is commonly meant the equilibrium dissociation constant of an inhibitor or competing ligand from its target. For `CC1=CC2(C)Oc3c(-c4ccccc4)c[nH]c(=O)c3C2C1C` (stereo not shown) [Compound 2, citridone A], in experiment [1], half-maximal inhibition (IC50) was put at 44.6 ± 0.84 µM, the “Ki′ (inhibition constant of the enzyme–substrate complex)” value worked out at 69.20 µM, the type of inhibition entry was “non-competitive inhibitor” and the Ki came to 76.3 µM. Also, the inhibition at 100 µM in experiment [1] is above 60%. Also, the Vmax in experiment [1] (inhibitor concentration 0.02 mM) amounted to 38.33 ± 2.97 mg/μmol⋅min. For the same molecule, the Vmax in experiment [1] (inhibitor concentration 0.04 mM) turned out to be 32.36 ± 3.11 mg/μmol⋅min. The Vmax in experiment [1] (inhibitor concentration 0.08 mM) is listed as 23.58 ± 2.49 mg/μmol⋅min. Besides, the “potentiation of miconazole activity” value in the experiment on Candida albicans is reported as “potentiator of miconazole”. Also, the “inhibition of staphyloxanthin biosynthesis” value in experiment [2] was “inhibit the biosynthesis of staphyloxanthin”.
Turning to `CC(=C[C@@H](C)[C@H]1CC[C@@H]2[C@]1(C)CC=C1[C@]23C=C[C@]2(C[C@@H](O)CC[C@]12C)OO3)[C@H](C)C(C)C` [Compound 3, 5α,8α-epidioxy-23,24(R)-dimethylcholesta-6,9(11),22-trien-3β-ol], in experiment [1], the IC50 stood at 21.6 ± 0.76 µM, the “Ki′ (inhibition constant of the enzyme–substrate complex)” value is 48.80 µM, the type of inhibition entry is “mixed-type” and the Ki was found to be 89 µM. Besides, the inhibition at 100 µM in experiment [1] was above 60%. Besides, the Vmax in experiment [1] (inhibitor concentration 0.015 mM) was 29.05 ± 1.14 mg/μmol⋅min. Also, in experiment [1] (inhibitor concentration 0.030 mM), the Vmax is 22.03 ± 1.06 mg/μmol⋅min. The Vmax in experiment [1] (inhibitor concentration 0.050 mM) is reported as 18.22 ± 0.64 mg/μmol⋅min.
For the molecule `O=C(O)[C@@H](O)[C@H]1OC(=O)[C@H](O)[C@H]1O` [DSL, D-saccharic acid 1,4-lactone, reference compound], in experiment [1], the IC50 stood at 47.9 ± 0.89 µM.
